Results reported in US8912121B2, “Herbicidal compositions comprising 4-amino-3-chloro-5-fluoro-6-(4-chloro-2-fluoro-3-methoxyphenyl)pyridine-2-carboxylic acid or a derivative thereof and certain PS II inhibitors” (Dow Agrosciences LLC, priority 2012, dated 2014).

Columns and labels:
[1] = test system: LEFCH (Leptochloa chinensis, Chinese sprangletop); assay: Postemergence foliar-applied mixtures, direct seeded rice, greenhouse; format: in vivo, Leptochloa chinensis (L.) Nees; details: 22 DAA
Excerpt: Seeds or nutlets of the desired test plant species were planted in a soil matrix prepared by mixing a loam or sandy loam soil (e.g., 28.6 percent silt, 18.8 percent clay, and 52.6 percent sand, with a pH of about 5.8 and an organic matter content of about 1.8 percent) and calcareous grit in an 80 to 20 ratio. The soil matrix was contained in plastic pots with a volume of 1 quart and a surface area of 83.6 square centimeters (cm^2). When required to ensure good germination and healthy plants, a fungicide treatment and/or other chemical or physical treatment was applied. The plants were grown for 8-22 days in a greenhouse with an approximate 14 h photoperiod which was maintained at about 29° C. during the day and 26° C. during the night. Nutrients (Peters Excel® 15-5-15 5-Ca 2-Mg and iron chelate) were applied in the irrigation solution as needed and water was added on a regular basis. Supplemental lighting was provided with overhead metal halide 1000-Watt lamps as necessary. The plants were employed for testing when they reached the first through fourth true leaf stage. […]
(§1) Treatment requirements were calculated based upon the rates being tested, the concentration of active ingredient or acid equivalent in the formulation, and a 12 mL application volume at a rate of 187 L/ha.
For treatments comprised of formulated compounds, measured amounts of compounds were placed individually in 25 mL glass vials and diluted in a volume of 1.25% (v/v) Agri-Dex® crop oil concentrated to obtain 12× stock solutions. […]
(§2) For treatments comprised of formulated and technical compounds, weighed amounts of the technical materials were placed individually in 25 mL glass vials and dissolved in a volume of 97:3 v/v acetone/DMSO to obtain 12× stock solutions, and measured amounts of the formulated compounds were placed individually in 25 mL glass vials and diluted in a volume of 1.5% (v/v) crop oil concentrate or water to obtain 12× stock solutions. […]

[2] = test system: ECHCG (Echinochloa crus-galli, barnyardgrass); assay: Pre-emergence soil-applied mixtures, greenhouse; format: in vivo, Echinochloa crus-galli (L.) P. Beauv.
Excerpt: Seeds or nutlets of the desired test plant species were planted in a soil matrix prepared by mixing a loam soil (32 percent silt, 23 percent clay, and 45 percent sand, with a pH of about 6.5 and an organic matter content of about 1.9 percent) and calcareous grit in an 80 to 20 ratio. The soil matrix was contained in plastic pots with a volume of 1 quart and a surface area of 83.6 square centimeters (cm^2).
Treatments consisted of the benzyl ester of 4-amino-3-chloro-5-fluoro-6-(4-chloro-2-fluoro-3-methoxy-phenyl)pyridine-2-carboxylic acid (compound A) formulated as an SC (suspension concentrate) and various herbicidal components alone and in combination. Forms of compound A were applied on an acid equivalent basis.
Other herbicidal components were applied on an acid equivalent or active ingredient basis and included the PSII-inhibiting herbicides, atrazine formulated as Atrazine® 90WDG, metribuzin formulated as Metribuzin 75DF, simazine formulated as Princep Caliber 90, tebuthiuron formulated as Spike 80DF, cyanazine (technical grade material), hexazinone (technical grade material), linuron (technical grade material), terbuthylazine (technical grade material), and diuron formulated as Diuron 4L.
as §1
For treatments comprised of formulated compounds, measured amounts of compounds were placed individually in 25 mL glass vials and diluted in a volume of 1.25% (v/v) Agri-Dex® crop oil concentrate (COC) to obtain 12× stock solutions. […] Application solutions were prepared by adding an appropriate amount of each stock solution (e.g., 1 mL) and diluted to the appropriate final concentrations with the addition of 10 mL of an aqueous mixture of 1.25% (v/v) COC so that the final spray solutions contained 1.25% (v/v) COC.
For treatments comprised of technical compounds, weighed amounts can be placed individually in 25 mL glass vials and dissolved in a volume of 97:3 (v/v) acetone/DMSO to obtain 12× stock solutions. […]
as §2, with “materials can be” for “materials were”, “97:3 (v/v)” for “97:3 v/v”, “compounds can be” for “compounds were”, “(v/v) COC” for “(v/v) crop oil concentrate”

## COc1c(Cl)ccc(-c2nc(C(=O)OCc3ccccc3)c(Cl)c(N)c2F)c1F [Compound A Benzyl Ester, benzyl ester of 4-amino-3-chloro-5-fluoro-6-(4-chloro-2-fluoro-3-methoxy-phenyl)pyridine-2-carboxylic acid]
[1]; 8 g ae/ha
  Visual Weed Control (%) Obs: 35%
[1]; 16 g ae/ha
  Visual Weed Control (%) Obs: 40%
[2]; Compound A Benzyl Ester 16 g ae/ha
  Visual Weed Control (%)-28 DAA ECHCG Obs: 0%
[2]; Compound A Benzyl Ester 32 g ae/ha
  Visual Weed Control (%)-28 DAA ECHCG Obs: 0%
